# Measured values: patent publication US9732032B2, “3-aminocyclopentane carboxamide derivatives” (Merck Patent GmbH, priority 2012, dated 2017)
# Target: T1, human recombinant full-length fatty acid synthase (FASN) (Homo sapiens, UniProt P49327)
# T1 construct: human recombinant full-length fatty acid synthase; made in house; host or cells: SF9 cells
# Test: Biochemical activity testing of human fatty acid synthase FASN (NADPH fluorescence intensity assay)
# Settings: NADPH fluorescence decrease (ex 340 nm / em 460 nm), 30 minutes at room temperature, read-out: IC50 FASN (enzyme assay)
# Source text: aq (aqueous), h (hour), g (gram), L (liter), mg (milligram), MHz (Megahertz), (melting point), eq (equivalent), mL (milliliter), L (microliter), ACN (acetonitrile), AcOH (acetic acid), CDCl3 (deuterated chloroform), CD3OD (deuterated methanol), CH3CN (acetonitrile), c-hex (cyclohexane), DCC (dicyclohexyl carbodiimide), DCM (dichloromethane), DIC (diisopropyl carbodiimide), DIEA (diisopropylethyl-amine), DMF (dimethylformamide), DMSO (dimethylsulfoxide), DMSO-d6 (deuterated dimethylsulfoxide), EDC (1-(3-dimethyl-amino-propyl)-3-ethylcarbodiimide), ESI (Electro-spray ionization), EtOAc (ethyl acetate), Et2O (diethyl ether), EtOH (ethanol), HATU (dimethylamino-([1,2,3]triazolo[4,5-b]pyridin-3-yloxy)-methylene]-dimethylammonium hexafluorophosphate), HPLC (High Performance Liquid Chromatography), i-PrOH (2-propanol), K2CO3 (potassium carbonate), LC (Liquid Chromatography), MeOH (methanol), MgSO4 (magnesium sulfate), MS (mass spectrometry), MTBE (Methyl tert-butyl ether), NaHCO3 (sodium bicarbonate), NaBH4 (sodium borohydride), NMM (N-methyl morpholine), NMR (Nuclear Magnetic Resonance), PyBOP (benzotriazole-1-yl-oxy-trispyrrolidino-phosphonium hexafluorophosphate), RT (room temperature), Rt (retention time), SPE (solid phase extraction), TBTU (2-(1-H-benzotriazole-1-yl)-1,1,3,3-tetramethyluromium tetrafluoro borate), TEA (triethylamine), TFA (trifluoroacetic acid), THF (tetrahydrofuran), TLC (Thin Layer Chromatography), UV (Ultraviolet). Description of the In Vitro Assays Abbreviations: GST=Glutathione-S-transferase FRET=Fluorescence resonance energy transfer HTRF®=(homogenous time resolved fluorescence) HEPES=4-(2-hydroxyethyl)-1-piperazine ethanesulfonic acid buffer DTT=Dithiothreitol BSA=bovine serum albumin CHAPS=detergent; CHAPS=3[(3-cholamidopropyl)dimethylammonio]-1-propanesulfonate Biochemical Activity Testing of Human Fatty Acid Synthase FASN
# Fatty acid synthase FASN is a multifunctional enzyme with seven catalytic activities thereby synthesising long chain fatty acids especially palmitoyl-CoA in the presence of co-factor NADPH starting from the substrates acetyl-CoA and malonyl-CoA. The reductive synthesis is realized by the oxidation of NADPH to NADP. Since NADPH has a high fluorescence intensity quantum yield compared to NADP with excitation at 340 nm and emission at 460 nm, the reaction can be monitored via the decrease in fluorescence intensity. The biochemical FASN activity testing was performed as 384 well two-time-point kinetic fluorescence intensity assay format in Greiner low volume medium binding 384-well black microtiter plates in a total assay volume of 8 μl and was used for high throughput screen. In each well 3 μl 40 nM human recombinant full-length fatty acid synthase (produced in-house in SF9 cells) were dispensed in the following assay buffer: 50 mM potassium phosphate buffer pH 7.0, 0.005% (w/v) BSA, 2 mM Glutathione, 0.02% Tween-20. Then 2 μl of 200 μM NADPH in assay buffer were added, followed by the addition of the test compounds in 10 dilution concentrations starting with 30 μM (final concentration) to get a final DMSO content of 1% (v/v). The mixture was incubated for at least 15 min at room temperature. After the pre-incubation the enzymatic reaction was started by the addition of 2 μl substrate solution (80 μM acetyl-CoA, 240 μM malonyl-CoA). A first fluorescence intensity measurement (time point one) was performed with an Envision multimode reader (Perkin Elmer LAS Germany GmbH) at excitation wavelength 340 nm (lamp mode) and emission wavelength 460 nm. The reaction was incubated for 30 minutes at room temperature. After this the fluorescence intensity was measured again in the Envision using the same parameters as described above (second time point measurement). The data were analysed by subtracting the first time point measurement value from the second time point measurement value (after the enzymatic reaction). The differences of the emission signals were determined. […]
# T1 sequence (P49327 whole entry): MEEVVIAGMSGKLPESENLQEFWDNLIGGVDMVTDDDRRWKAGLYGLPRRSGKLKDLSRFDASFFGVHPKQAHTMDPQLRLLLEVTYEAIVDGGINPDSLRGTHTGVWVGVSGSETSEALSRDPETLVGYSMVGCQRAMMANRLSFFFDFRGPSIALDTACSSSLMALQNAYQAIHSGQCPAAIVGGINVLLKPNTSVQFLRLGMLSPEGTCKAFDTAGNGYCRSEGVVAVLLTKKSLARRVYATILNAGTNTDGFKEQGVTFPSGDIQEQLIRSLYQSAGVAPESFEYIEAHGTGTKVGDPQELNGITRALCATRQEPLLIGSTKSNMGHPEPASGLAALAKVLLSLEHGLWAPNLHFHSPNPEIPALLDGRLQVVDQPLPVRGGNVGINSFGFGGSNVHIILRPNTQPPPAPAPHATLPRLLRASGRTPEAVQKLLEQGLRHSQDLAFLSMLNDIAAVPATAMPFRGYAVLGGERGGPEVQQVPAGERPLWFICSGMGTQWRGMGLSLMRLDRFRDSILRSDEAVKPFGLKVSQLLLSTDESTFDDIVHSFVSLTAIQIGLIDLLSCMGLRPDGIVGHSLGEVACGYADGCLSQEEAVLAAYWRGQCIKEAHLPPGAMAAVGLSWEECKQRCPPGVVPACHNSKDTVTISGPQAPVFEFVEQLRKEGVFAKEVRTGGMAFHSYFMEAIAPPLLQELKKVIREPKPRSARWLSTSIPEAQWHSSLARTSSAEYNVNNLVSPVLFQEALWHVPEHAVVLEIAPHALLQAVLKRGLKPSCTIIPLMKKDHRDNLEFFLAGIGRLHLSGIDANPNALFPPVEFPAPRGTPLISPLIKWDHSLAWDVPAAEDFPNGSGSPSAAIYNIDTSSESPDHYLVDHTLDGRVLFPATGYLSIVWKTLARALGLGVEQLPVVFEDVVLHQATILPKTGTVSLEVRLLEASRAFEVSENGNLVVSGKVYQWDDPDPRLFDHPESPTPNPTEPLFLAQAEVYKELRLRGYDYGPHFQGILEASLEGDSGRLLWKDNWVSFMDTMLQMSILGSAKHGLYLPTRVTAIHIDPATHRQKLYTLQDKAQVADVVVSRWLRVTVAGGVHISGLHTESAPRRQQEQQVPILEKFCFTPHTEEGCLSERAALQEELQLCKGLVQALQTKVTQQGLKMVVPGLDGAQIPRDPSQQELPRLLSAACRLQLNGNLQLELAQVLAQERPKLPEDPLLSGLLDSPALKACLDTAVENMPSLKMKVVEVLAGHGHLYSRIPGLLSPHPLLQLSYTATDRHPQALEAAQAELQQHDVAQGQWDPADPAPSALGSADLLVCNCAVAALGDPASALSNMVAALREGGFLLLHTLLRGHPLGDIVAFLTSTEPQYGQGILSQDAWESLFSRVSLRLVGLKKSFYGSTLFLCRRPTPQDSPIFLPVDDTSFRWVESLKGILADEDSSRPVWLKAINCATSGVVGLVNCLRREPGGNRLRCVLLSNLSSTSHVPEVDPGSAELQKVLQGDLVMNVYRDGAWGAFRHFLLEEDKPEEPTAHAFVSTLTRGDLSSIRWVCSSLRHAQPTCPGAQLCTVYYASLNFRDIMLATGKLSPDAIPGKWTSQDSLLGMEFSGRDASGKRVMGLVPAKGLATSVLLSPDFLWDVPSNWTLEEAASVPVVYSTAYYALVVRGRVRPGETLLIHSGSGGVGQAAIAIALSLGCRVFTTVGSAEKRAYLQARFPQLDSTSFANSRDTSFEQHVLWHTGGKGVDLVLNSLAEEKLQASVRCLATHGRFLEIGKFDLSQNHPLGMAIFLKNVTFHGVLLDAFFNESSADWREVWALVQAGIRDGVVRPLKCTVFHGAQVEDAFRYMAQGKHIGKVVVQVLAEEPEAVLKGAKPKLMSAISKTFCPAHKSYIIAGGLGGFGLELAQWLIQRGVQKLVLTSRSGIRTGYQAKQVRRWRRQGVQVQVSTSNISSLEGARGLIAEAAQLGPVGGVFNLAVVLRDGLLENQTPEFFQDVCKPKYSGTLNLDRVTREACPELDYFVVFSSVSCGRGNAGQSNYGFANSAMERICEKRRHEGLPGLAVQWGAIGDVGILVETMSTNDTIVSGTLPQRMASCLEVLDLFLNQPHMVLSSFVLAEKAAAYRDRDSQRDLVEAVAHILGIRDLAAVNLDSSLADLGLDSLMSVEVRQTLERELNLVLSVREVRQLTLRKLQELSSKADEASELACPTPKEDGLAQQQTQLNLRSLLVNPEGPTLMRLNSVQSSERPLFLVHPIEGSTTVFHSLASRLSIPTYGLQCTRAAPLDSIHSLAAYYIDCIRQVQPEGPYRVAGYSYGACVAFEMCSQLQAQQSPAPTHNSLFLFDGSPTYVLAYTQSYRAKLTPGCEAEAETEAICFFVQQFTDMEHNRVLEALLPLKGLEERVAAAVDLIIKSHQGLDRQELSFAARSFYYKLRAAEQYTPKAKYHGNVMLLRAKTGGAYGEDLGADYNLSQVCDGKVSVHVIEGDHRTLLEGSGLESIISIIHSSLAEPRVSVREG
row,SMILES,IC50 [nM]
1,"CCNC(=O)C1CC[C@@H](N(C)C(=O)c2ccc(-c3nc4cccc(F)c4o3)cc2)C1 (stereo in doubt) [Compound A100, N-((1R,3S)-3-ethylcarbamoyl-cyclopentyl)-4-(7-fluoro-benzooxazol-2-yl)-N-methyl-benzamide]",< 300
2,"CCNC(=O)[C@H]1CC[C@@H](N(C)C(=O)c2ccc(-c3nc4ccccc4o3)cc2)C1 [Compound A1, 4-(1,3-benzoxazol-2-yl)-N-[(1R,3S)-3-(ethylcarbamoyl)cyclopentyl]-N-methyl-benzamide]",< 300
3,"CCNC(=O)[C@H]1CC[C@@H](N(C)C(=O)c2ccc(-c3nc4ccccc4n3C)cc2)C1 [Compound A2, N-((1R,3S)-3-ethylcarbamoyl-cyclopentyl)-N-methyl-4-(1-methyl-1H-benzoimidazol-2-yl)-benzamide]",< 300
4,"CCNC(=O)[C@H]1CC[C@@H](N(C)C(=O)c2ccc(-c3ccc(O[C@@H]4CCOC4)cc3)cc2)C1 [Compound A4, 4′-[(R)-(tetrahydro-furan-3-yl)oxy]-biphenyl-4-carboxylic acid ((1R,3S)-3-ethylcarbamoyl-cyclopentyl)-methyl-amide]",300 to 3000
5,"CC(C)NC(=O)[C@H]1CC[C@@H](N(C)C(=O)c2ccc(-c3nc4ccccc4o3)cc2)C1 [Compound A5, 4-benzoxazol-2-yl-N-((1R,3S)-3-isopropylcarbamoyl-cyclopentyl)-N-methyl-benzamide]",< 300
6,"CN(C(=O)c1ccc(-c2nc3ccccc3o2)cc1)[C@@H]1CC[C@H](C(=O)NC2CC2)C1 [Compound A6, 4-benzoxazol-2-yl-N-((1R,3S)-3-cyclopropylcarbamoyl-cyclopentyl)-N-methyl-benzamide]",< 300
7,"CN(C(=O)c1ccc(-c2nc3ccccc3o2)cc1)[C@@H]1CC[C@H](C(=O)NC2CCCC2)C1 [Compound A7, 4-benzoxazol-2-yl-N-((1R,3S)-3-cyclopentylcarbamoyl-cyclopentyl)-N-methyl-benzamide]",< 300
8,"CCNC(=O)[C@H]1CC[C@@H](N(C)C(=O)c2ccc(-c3nc4ccccc4[nH]3)cc2)C1 [Compound A11, 4-(1H-benzimidazol-2-yl)-N-[(1R,3S)-3-(ethylcarbamoyl)cyclopentyl]-N-methyl-benzamide]",< 300
9,"CCNC(=O)[C@@H]1CC[C@@H](N(C)C(=O)c2ccc(-c3nc4ccccc4o3)cc2)C1 [Compound A44, 4-(1,3-benzoxazol-2-yl)-N-[(1R,3R)-3-(ethylcarbamoyl)cyclopentyl]-N-methyl-benzamide]",< 300
10,"CCNC(=O)[C@H]1CC[C@@H](N(C)C(=O)c2ccc(-c3nc4ccccc4o3)c(OC)c2)C1 [Compound A45, 4-benzoxazol-2-yl-N-((1R,3S)-3-ethylcarbamoyl-cyclopentyl)-3-methoxy-N-methyl-benzamide]",< 300
11,"CCNC(=O)[C@H]1CC[C@@H](N(C)C(=O)c2ccc(-c3nc4ccccc4o3)cc2OC)C1 [Compound A46, 4-benzoxazol-2-yl-N-((1R,3S)-3-ethylcarbamoyl-cyclopentyl)-2-methoxy-N-methyl-benzamide]",< 300
12,"CCN(C)C(=O)[C@H]1CC[C@@H](N(C)C(=O)c2ccc(-c3nc4ccccc4o3)cc2)C1 [Compound A47, 4-benzoxazol-2-yl-N-[(1R,3S)-3-(ethyl-methyl-carbamoyl)-cyclopentyl]-N-methyl-benzamide]",300 to 3000
13,"CCN(CC)C(=O)[C@H]1CC[C@@H](N(C)C(=O)c2ccc(-c3nc4ccccc4o3)cc2)C1 [Compound A48, 4-benzoxazol-2-yl-N-((1R,3S)-3-diethylcarbamoyl-cyclopentyl)-N-methyl-benzamide]",300 to 3000
14,"CCNC(=O)[C@H]1CC[C@@H](N(C)C(=O)c2ccc(-c3ccc(C)cc3)cc2)C1 [Compound A49, 4′-methyl-biphenyl-4-carboxylic acid ((1R,3S)-3-ethylcarbamoyl-cyclopentyl)-methyl-amide]",< 300
15,"CCNC(=O)[C@H]1CC[C@@H](N(C)C(=O)c2ccc(-c3ccccc3)cc2)C1 [Compound A50, biphenyl-4-carboxylic acid ((1R,3S)-3-ethylcarbamoyl-cyclopentyl)-methyl-amide]",< 300
16,"CCNC(=O)[C@H]1CC[C@@H](N(C)C(=O)c2ccc(-c3ccccc3)cc2Cl)C1 [Compound A51, 3-chloro-biphenyl-4-carboxylic acid ((1R,3S)-3-ethylcarbamoyl-cyclopentyl)-methyl-amide]",< 300
17,"CCNC(=O)[C@H]1CC[C@@H](N(C)C(=O)c2ccc(-c3nnc(OC)cc3C)cc2)C1 [Compound A52, N-((1R,3S)-3-ethylcarbamoyl-cyclopentyl)-4-(6-methoxy-4-methyl-pyridazin-3-yl)-N-methyl-benzamide]",3000 to 50000
18,"CCNC(=O)[C@H]1CC[C@@H](N(C)C(=O)c2ccc(-c3ccccc3)cn2)C1 [Compound A53, 5-phenyl-pyridine-2-carboxylic acid ((1R,3S)-3-ethylcarbamoyl-cyclopentyl)-methyl-amide]",< 300
19,"CCNC(=O)[C@H]1CC[C@@H](N(C)C(=O)c2ccc(C#Cc3ccc(Cl)cc3)cc2)C1 [Compound A54, 4-(4-chloro-phenylethynyl)-N-((1R,3S)-3-ethylcarbamoyl-cyclopentyl)-N-methyl-benzamide]",< 300
20,"CCNC(=O)[C@H]1CC[C@@H](N(C)C(=O)c2ccc(C#Cc3ccc(F)cc3)cc2)C1 [Compound A55, N-((1R,3S)-3-ethylcarbamoyl-cyclopentyl)-4-(4-fluoro-phenylethynyl)-N-methyl-benzamide]",< 300
21,"CCNC(=O)[C@H]1CC[C@@H](N(C)C(=O)c2ccc(-c3ccncc3)cc2)C1 [Compound A56, N-((1R,3S)-3-ethylcarbamoyl-cyclopentyl)-N-methyl-4-pyridin-4-yl-benzamide]",< 300
22,"CCNC(=O)[C@H]1CC[C@@H](N(C)C(=O)c2ccc(-c3ccncc3)cc2F)C1 [Compound A57, N-((1R,3S)-3-ethylcarbamoyl-cyclopentyl)-2-fluoro-N-methyl-4-pyridin-4-yl-benzamide]",< 300
23,"CCNC(=O)[C@H]1CC[C@@H](N(C)C(=O)c2c(F)cc(-c3ccc(CC)cc3)cc2F)C1 [Compound A58, 4′-ethyl-3,5-difluoro-biphenyl-4-carboxylic acid ((1R,3S)-3-ethylcarbamoyl-cyclopentyl)-methyl-amide]",< 300
24,"CCNC(=O)[C@H]1CC[C@@H](N(C)C(=O)c2ccc(-c3ccccc3S(C)(=O)=O)cc2)C1 [Compound A59, 2′-methanesulfonyl-biphenyl-4-carboxylic acid ((1R,3S)-3-ethylcarbamoyl-cyclopentyl)-methyl-amide]",< 300
25,"CCNC(=O)[C@H]1CC[C@@H](N(C)C(=O)c2ccc(-c3ccccc3S(=O)(=O)NC(C)(C)C)cc2)C1 [Compound A60, 2′-tert-butylsulfamoyl-biphenyl-4-carboxylic acid ((1R,3S)-3-ethylcarbamoyl-cyclopentyl)-methyl-amide]",3000 to 50000
26,"CCNC(=O)[C@H]1CC[C@@H](N(C)C(=O)c2ccc(-c3ccccc3S(N)(=O)=O)cc2)C1 [Compound A61, 2′-sulfamoyl-biphenyl-4-carboxylic acid ((1R,3S)-3-ethylcarbamoyl-cyclopentyl)-methyl-amide]",< 300
27,"CCNC(=O)[C@H]1CC[C@@H](N(C)C(=O)c2ccc(-c3ccc(Cl)cc3)cc2)C1 [Compound A62, 4′-chloro-biphenyl-4-carboxylic acid ((1R,3S)-3-ethylcarbamoyl-cyclopentyl)-methyl-amide]",< 300
